# Assay results from patent publication US8669254B2, “Pyridine, pyridazine, pyrimidine or pyrazine carboxamides as HDL-cholesterol raising agents” (Hoffman-La Roche Inc., priority 2010, dated 2014).
# Like-named read-outs stand apart in the source and are kept apart here.
# Assays:
# [1] = target: T1, human CB1 receptor (Homo sapiens, UniProt P21554); test: CB1 receptor affinity ([3H]-CP-55,940 displacement); format: binding; conditions: read-out: CB1 receptor affinity [% inhibition @ 10 μM]
# T1 construct: expressed in transfected cells; host or cells: human embryonic kidney (HEK) cells, Semliki Forest Virus system, membrane preparation
# Method: (§1) The affinity of the compounds of the invention for cannabinoid receptors was determined using membrane preparations of human embryonic kidney (HEK) cells in which the human CB1 receptor is transiently transfected using a Semliki Forest Virus system in conjunction with [3H]-CP-55,940 as radioligand. After incubation of freshly prepared cell membrane preparation with the [^3H]-ligand, with or without addition of compounds of the invention, separation of bound and free ligand was performed by filtration over glass fiber filters. Radioactivity on the filter was measured by scintillation counting.
# (§2) The ability of the compounds to displace the radioligand [^3H]-CP-55,940 was measured at a concentration of 10 μM and values provided as [% inhibition @ 10 μM] both for the CB 1 and CB2 receptor assay, The lower % inhibition is, the lower the likelihood of side effects based on CB1 or CB2 receptor inhibition is.
# [2] = test system: ABCA1 protein; test: Detection of upregulation of ABCA1 protein in cells (ApoA-I binding, high content image analysis); format: cell-based; conditions: THP-1 macrophage cells; for EC50: ABCA1 protein detection assay; for % increase of ABCA1 at 3 μM: compound at 3 μM, 24 hrs
# Method: The ability of compounds of the invention to increase the level of ABCA1 protein is determined in replicate cultures of THP-1 macrophage cells in 96-well microplates. Cells are plated at an initial density of 100,000 cells/well in 100 μl medium and differentiated to adherent macrophages with the addition of PMA (100 nM) for 68 hrs in 10% fetal bovine serum, 3 μl/L of b-mercaptoethanol, RPMI-1640 medium. Then, cells are incubated with RPMI-1640 medium containing 1% FCS, 25 μg/ml acetylated LDL, for 24 hours at 37°. Following incubation with acetylated LDL, cells are washed twice with 50 μl PBS and incubated with 100 μl of RPMI-1640 medium containing the compound of interest solubilized in DMSO for an additional 24 hrs. The final DMSO concentration in presence of cells is maintained at 0.5%. ApoA-I binding assay using High Content Image Analysis is initiated by replacing with fresh medium, RPMI without Phenol Red, 0.2% BSA containing AlexaFluor®647 labeled ApoA-I for 2 h/37° C./5% CO2. Then, cells are fixed with 4% Formaldehyde in PBS (15 min, RT). Following Nuclei are stained with Hoechst solution (3 μM PBS) and Cytoplasm with Cell Mask Blue (2 μg/ml PBS), 15 min, RT. Finally the stained cells are fixed with a second round of formaldehyde treatment. Fixed stained cells are washed and kept in PBS at 4° C. and can be read immediately until one month after preparation.
# The Alexa Fluor 647-labeled Apolipoprotein A-I (20 nM) was prepared as follows: Human recombinant Apolipoprotein A-I (ApoA-I) was exchanged to a buffer of 0.02 M NaHCO3 at pH 8.2 on an NAP desalting column (GE Healthcare) and brought to a concentration to 40 μM (1.13 mg/ml) by adjustment with the same buffer. The ApoA-I was fluorescently labeled by incubation with Alexa Fluor carboxylic acid succimidyl ester (Alexa Fluor 647, Invitrogen A-20006) at a 2:1 molar ratio (Alexa to ApoA-I) for 1 h under shaking at RT). The remaining unconjugated label was removed by buffer exchange to 0.02M NaHCO3 at pH 8.2.
# Imaging and data collection were performed on an OPERA confocal microplate imaging reader using a 20× water immersion objective and UV360 or 405 laser to identify the cell nuclei and a 635 laser to identify the fluorescent ApoA-I. Eight fields of view are captured per well. Image capture and analysis was performed with the Acapella software. Background fluorescence detected in control wells without ApoA-I was subtracted.
# Using XLfit3 program (ID Business Solutions Ltd. UK), the model 205 for Dose Response One Site is used to calculate the EC50 values. […] Particularly, the compounds of the present invention have EC50 values in a range of 0.1 μM to 3 μM.
# [3] = target: T2, human CB2 receptor (Homo sapiens, UniProt P34972); test: CB2 receptor affinity ([3H]-CP-55,940 displacement); format: binding; conditions: HEK cell membranes, radioligand [3H]-CP-55,940
# T2 construct: expressed in transfected cells; host or cells: human embryonic kidney (HEK) cells, Semliki Forest Virus system, membrane preparation
# Method: as §1, with “cannabinoid CB2” for “cannabinoid”, “CB2” for “CB1”, “[^3H]-CP-55,940” for “[3H]-CP-55,940”
# as §2
# [4] = 10 μM, HEK cell membranes, radioligand [3H]-CP-55,940
# T1 sequence (P21554 whole entry): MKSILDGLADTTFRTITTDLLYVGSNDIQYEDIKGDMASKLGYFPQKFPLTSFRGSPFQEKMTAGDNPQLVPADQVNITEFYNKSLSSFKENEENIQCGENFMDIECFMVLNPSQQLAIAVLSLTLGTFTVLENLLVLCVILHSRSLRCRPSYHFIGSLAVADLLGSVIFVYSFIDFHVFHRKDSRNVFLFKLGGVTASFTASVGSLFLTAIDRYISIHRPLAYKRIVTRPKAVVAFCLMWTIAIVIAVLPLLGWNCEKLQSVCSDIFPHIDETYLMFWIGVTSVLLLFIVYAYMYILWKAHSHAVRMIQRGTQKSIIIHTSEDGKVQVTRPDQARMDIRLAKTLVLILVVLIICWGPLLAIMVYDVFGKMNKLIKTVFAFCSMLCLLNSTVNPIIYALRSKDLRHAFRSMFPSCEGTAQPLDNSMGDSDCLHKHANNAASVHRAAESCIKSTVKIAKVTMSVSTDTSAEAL
# T2 sequence (P34972 whole entry): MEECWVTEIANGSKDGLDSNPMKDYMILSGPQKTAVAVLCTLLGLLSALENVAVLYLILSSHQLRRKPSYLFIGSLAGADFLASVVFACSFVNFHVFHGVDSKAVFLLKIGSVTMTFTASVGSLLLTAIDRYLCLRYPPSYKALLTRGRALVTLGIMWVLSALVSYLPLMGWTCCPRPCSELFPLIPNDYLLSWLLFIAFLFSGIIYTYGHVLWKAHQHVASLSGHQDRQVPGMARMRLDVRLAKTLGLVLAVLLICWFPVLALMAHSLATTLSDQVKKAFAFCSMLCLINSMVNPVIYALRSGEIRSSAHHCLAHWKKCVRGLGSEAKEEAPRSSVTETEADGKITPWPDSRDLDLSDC
SMILES,inhibition at 10 µM [3] [%],"inhibition at 10 µM [1, 4] [%]",inhibition at 10 µM [1] [%],EC50 [2] [nM],% increase of ABCA1 at 3 μM [2] [% @ 3 μM]
"CO/N=C1\CCCC[C@@H]1NC(=O)c1cnc(OCC2CC2)c(-c2ccc(Cl)cc2)c1 [Example 1, 5-(4-Chloro-phenyl)-6-cyclopropylmethoxy-N-{(S)-2-[(E)-methoxyimino]-cyclohexyl}-nicotinamide]",17.2,–,34,700,87.2
"CO/N=C1\CCCC[C@@H]1NC(=O)c1cnc(OCC(F)(F)F)c(-c2ccc(Cl)cc2)c1 [Example 2, 5-(4-Chloro-phenyl)-N-{(S)-2-[(E)-methoxyimino]-cyclohexyl}-6-(2,2,2-trifluoro-ethoxy)-nicotinamide]",3.53,30.8,–,1820,88.3
"CC(C)O/N=C1\CCCC[C@@H]1NC(=O)c1cnc(OCC2CC2)c(-c2ccc(Cl)cc2)c1 [Example 3, 5-(4-Chloro-phenyl)-6-cyclopropylmethoxy-N-{(S)-2-[(E)-isopropoxyimino]-cyclohexyl}-nicotinamide]",6.86,45.7,–,–,66.4
"O=C(N[C@H]1CCCC/C1=N\OCC(F)(F)F)c1cnc(OCC2CC2)c(-c2ccc(Cl)cc2)c1 [Example 4, 5-(4-Chloro-phenyl)-6-cyclopropylmethoxy-N-{(S)-2-[(E)-2,2,2-trifluoro-ethoxyimino]-cyclohexyl}-nicotinamide]",8.91,48.5,–,–,90.4
"NC(=O)CO/N=C1\CCCC[C@@H]1NC(=O)c1cnc(OCC2CC2)c(-c2ccc(Cl)cc2)c1 [Example 5, N-{(S)-2-[(E)-Carbamoylmethoxyimino]-cyclohexyl}-5-(4-chloro-phenyl)-6-cyclopropylmethoxy-nicotinamide]",15.1,33.1,–,2020,65.2
"COCO/N=C1\CCCC[C@@H]1NC(=O)c1cnc(OCC2CC2)c(-c2ccc(Cl)cc2)c1 [Example 6, 5-(4-Chloro-phenyl)-6-cyclopropylmethoxy-N-{(S)-2-[(E)-methoxymethoxyimino]-cyclohexyl}-nicotinamide]",19.2,36.7,–,–,71.9
"CO/N=C1\CCCC[C@@H]1NC(=O)c1cnc(OCC(F)(F)F)c(-c2ccc(Cl)c(Cl)c2)c1 [Example 7, 5-(3,4-Dichloro-phenyl)-N-{(S)-2-[(E)-methoxyimino]-cyclohexyl}-6-(2,2,2-trifluoro-ethoxy)-nicotinamide]",3.56,–,10.5,4720,84.6
"CO/N=C1\CCCC[C@H]1NC(=O)c1cnc(OCC(F)(F)F)c(-c2ccc(Cl)c(Cl)c2)c1 [Example 8, 5-(3,4-Dichloro-phenyl)-N-{(R)-2-[(E)-methoxyimino]-cyclohexyl}-6-(2,2,2-trifluoro-ethoxy)-nicotinamide]",13.1,–,35.2,810,63
"CO/N=C1\CCCC[C@@H]1NC(=O)c1cc(-c2ccc(Cl)cc2)c(OCC(F)(F)F)cn1 [Example 9, 4-(4-Chloro-phenyl)-5-(2,2,2-trifluoro-ethoxy)-pyridine-2-carboxylic acid {(S)-2-[(E)-methoxyimino]-cyclohexyl}-amide]",37.6,15.9,–,–,71.7
"CO/N=C1\CCCC[C@@H]1NC(=O)c1ccc(OCC(F)(F)F)c(-c2ccc(Cl)cc2)n1 [Example 10, 6-(4-Chloro-phenyl)-5-(2,2,2-trifluoro-ethoxy)-pyridine-2-carboxylic acid {(S)-2-[(E)-methoxyimino]-cyclohexyl}-amide]",19.2,0.74,–,1530,45.6
"O=C(NC/C(=N/O)C1CC1)c1cnc(OCC(F)(F)F)c(-c2ccc(Cl)c(Cl)c2)c1 [Example 11, N-(E)-(2-Cyclopropyl-2-hydroxyimino-ethyl)-5-(3,4-dichloro-phenyl)-6-(2,2,2-trifluoro-ethoxy)-nicotinamide]",44.3,30,–,–,55.9
"CO/N=C(/CNC(=O)c1cnc(OCC(F)(F)F)c(-c2ccc(Cl)c(Cl)c2)c1)C1CC1 [Example 12, N-{2-Cyclopropyl-2-[(E)-methoxyimino]-ethyl}-5-(3,4-dichloro-phenyl)-6-(2,2,2-trifluoro-ethoxy)-nicotinamide]",47.7,26.8,–,–,88.4

# More lines, main results first:
inhibition at 10 µM [3] [%],"inhibition at 10 µM [1, 4] [%]",SMILES,inhibition at 10 µM [1] [%],EC50 [2] [nM],% increase of ABCA1 at 3 μM [2] [% @ 3 μM]
1.52,48.6,"CO/N=C(\CNC(=O)c1cnc(OCC(F)(F)F)c(-c2ccc(Cl)cc2)c1)C1CC1 [Example 13, 5-(4-Chloro-phenyl)-N-{2-cyclopropyl-2-[(Z)-methoxyimino]-ethyl}-6-(2,2,2-trifluoro-ethoxy)-nicotinamide]",–,–,66.2
20.9,48.2,"CO/N=C(/CNC(=O)c1cnc(OCC(F)(F)F)c(-c2ccc(Cl)cc2)c1)C1CC1 [Example 14, 5-(4-Chloro-phenyl)-N-{2-cyclopropyl-2-[(E)-methoxyimino]-ethyl}-6-(2,2,2-trifluoro-ethoxy)-nicotinamide]",–,–,157.2
16.6,25.4,"CO/N=C1\CCCC[C@H]1NC(=O)c1cc(-c2ccc(Cl)cc2)c(OCC(F)(F)F)nn1 [Example 16, 5-(4-Chloro-phenyl)-6-(2,2,2-trifluoro-ethoxy)-pyridazine-3-carboxylic acid {(R)-2-[(E)-methoxyimino]-cyclohexyl}-amide]",–,10000,55.3
13.6,16.6,"CO/N=C1\CCCC[C@@H]1NC(=O)c1cc(-c2ccc(Cl)cc2)c(OCC(F)(F)F)nn1 [Example 17, 5-(4-Chloro-phenyl)-6-(2,2,2-trifluoro-ethoxy)-pyridazine-3-carboxylic acid {(S)-2-[(E)-methoxyimino]-cyclohexyl}-amide]",–,2630,76.5
32.5,26.9,"CO/N=C1\CCCC[C@@H]1NC(=O)c1cc(-c2ccc(Cl)cc2)c(OCC2CC2)nn1 [Example 18, 5-(4-Chloro-phenyl)-6-cyclopropylmethoxy-pyridazine-3-carboxylic acid {(S)-2-[(E)-methoxyimino]-cyclohexyl}-amide]",–,4990,57.3
63.8,28,"CO/N=C(\CNC(=O)c1ncc(OCC2CC2)c(-c2ccc(Cl)cc2)n1)C1CC1 [Example 19, 4-(4-Chloro-phenyl)-5-cyclopropylmethoxy-pyrimidine-2-carboxylic acid {2-cyclopropyl-2-[(Z)-methoxyimino]-ethyl}-amide]",–,–,84.2
